In US20240124417A1, “COMPOUNDS USEFUL AS IMMUNOMODULATORS” (Bristol-Myers Squibb Company, priority 2019, published 2024):

These molecules were tested against T1, PD-1/PD-L1 (Homo sapiens, UniProt Q9NZQ7) (assay: PD-1/PD-L1 Homogenous Time-Resolved Fluorescence (HTRF) binding assay). Settings: PD-L1-His 10 nM, PD-1-Ig 20 nM.
T1 construct: TVMV protease site linker (C); made in house; host or cells: HEK293T cells
T1 sequence (Q9NZQ7 18-239): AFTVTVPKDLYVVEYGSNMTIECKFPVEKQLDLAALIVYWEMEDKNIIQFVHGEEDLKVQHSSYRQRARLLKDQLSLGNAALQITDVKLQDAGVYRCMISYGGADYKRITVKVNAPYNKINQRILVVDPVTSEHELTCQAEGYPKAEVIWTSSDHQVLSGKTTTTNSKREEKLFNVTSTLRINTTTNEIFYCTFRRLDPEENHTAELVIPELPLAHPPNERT
Excerpt: The ability of the compounds of the invention to bind to PD-L1 was investigated using a PD-1/PD-L1 Homogenous Time-Resolved Fluorescence (HTRF) binding assay.
Homogenous Time-Resolved Fluorescence (HTRF) binding assay.
The interaction of PD-1 and PD-L1 can be assessed using soluble, purified preparations of the extracellular domains of the two proteins. The PD-1 and PD-L1 protein extracellular domains were expressed as fusion proteins with detection tags, for PD-1, the tag was the Fc portion of Immunoglobulin (PD-1-Ig) and for PD-L1 it was the 6 histidine motif (PD-L1-His). All binding studies were performed in an HTRF assay buffer consisting of dPBS supplemented with 0.1% […] bovine serum albumin and 0.05% (v/v) Tween-20. For the h/PD-L1-His binding assay, inhibitors were pre-incubated with PD-L1-His (10 nM final) for 15 m in 4 μl of assay buffer, followed by addition of PD-1-Ig (20 nM final) in 1 μl of assay buffer and further incubation for 15 m. HTRF detection was achieved using europium crypate-labeled anti-Ig (1 nM final) and allophycocyanin (APC) labeled anti-His (20 nM final). Antibodies were diluted in HTRF detection buffer and 5 μl was dispensed on top of the binding reaction. […] Additional binding assays were established between the human proteins PD-1-Ig/PD-L2-His (20 & 5 nM, respectively) and CD80-His/PD-L1-Ig (100 & 10 nM, respectively). […]
Cc1c(COc2cc(OCc3cnccn3)c(CNCc3c[nH]cn3)cc2Cl)cccc1-c1cccc(OCC2CCCN(C)C2)c1Cl (centres unmarked) [Example 2060, N-((1H-imidazol-4-yl)methyl)-1-(5-chloro-4-((2′-chloro-2-methyl-3′-((1-methylpiperidin-3-yl)methoxy)-[1,1′-biphenyl]-3-yl)methoxy)-2-(pyrazin-2-ylmethoxy)phenyl)methanamine] was tested, and the IC50 was 1.9 nM. Cc1c(COc2cc(OCc3cncc(C#N)c3)c(CNCc3ncccn3)cc2Cl)cccc1-c1cccc(OCC2CCCN(CCC(F)(F)F)C2)c1Cl (centres unmarked) [Example 2066, 5-((4-chloro-5-((2′-chloro-2-methyl-3′-((1-(3,3,3-trifluoropropyl)piperidin-3-yl)methoxy)-[1,1′-biphenyl]-3-yl)methoxy)-2-(((pyrimidin-2-ylmethyl)amino)methyl)phenoxy)methyl)nicotinonitrile] showed an IC50 of 75.9 nM. Cc1nc(CNCc2cc(Cl)c(OCc3cccc(-c4cccc(OCCCN5CC[C@@H](O)C5)c4C)c3C)cc2OCc2cncc(C#N)c2)no1 [Example 2540, (R)-5-((4-chloro-5-((3′-(3-(3-hydroxypyrrolidin-1-yl)propoxy)-2,2′-dimethyl-[1,1′-biphenyl]-3-yl)methoxy)-2-((((5-methyl-1,2,4-oxadiazol-3-yl)methyl)amino)methyl)phenoxy)methyl)nicotinonitrile] showed an IC50 of 3.1 nM. Cc1c(COc2cc(OCc3cncc(C#N)c3)c(CNCc3nc4ccccc4n3Cc3ccccc3)cc2Cl)cccc1-c1cccc(OCCCN2CC[C@@H](O)C2)c1C [Example 2557, (R)-5-((2-((((1-benzyl-1H-benzo[d]imidazol-2-yl)methyl)amino)methyl)-4-chloro-5-((3′-(3-(3-hydroxypyrrolidin-1-yl)propoxy)-2,2′-dimethyl-[1,1′-biphenyl]-3-yl)methoxy)phenoxy)methyl)nicotinonitrile] showed an IC50 of 73.3 nM. Cc1c(COc2cc(OCc3cncc(C#N)c3)c(CNc3nnn[nH]3)cc2Cl)cccc1-c1cccc(OCCCN2CC[C@@H](O)C2)c1C [Example 1001, (R)-5-((2-(((1H-Tetrazol-5-yl)amino)methyl)-4-chloro-5-((3′-(3-(3-hydroxypyrrolidin-1-yl)propoxy)-2,2′-dimethyl-[1,1′-biphenyl]-3-yl)methoxy)phenoxy)methyl)nicotinonitrile] was tested, and the IC50 was 4.9 nM. Cc1c(COc2cc(OCc3cncc(C#N)c3)c(CN(C)Cc3ccn(C)n3)cc2Cl)cccc1-c1cccc(OCCCN2CC[C@@H](O)C2)c1C [Example 2026, (R)-5-((4-chloro-5-((3′-(3-(3-hydroxypyrrolidin-1-yl)propoxy)-2,2′-dimethyl-[1,1′-biphenyl]-3-yl)methoxy)-2-((methyl((1-methyl-1H-pyrazol-3-yl)methyl)amino)methyl)phenoxy)methyl)nicotinonitrile] was tested, and the IC50 was 1.9 nM. Work on Cc1c(COc2cc(OCc3cncc(C#N)c3)c(CN3CCc4c(cnn4-c4ccccc4)C3)cc2Cl)cccc1-c1cccc(OCCCN2CC[C@@H](O)C2)c1C [Example 2567, (R)-5-((4-chloro-5-((3′-(3-(3-hydroxypyrrolidin-1-yl)propoxy)-2,2′-dimethyl-[1,1′-biphenyl]-3-yl)methoxy)-2-((1-phenyl-1,4,6,7-tetrahydro-5H-pyrazolo[4,3-c]pyridin-5-yl)methyl)phenoxy)methyl)nicotinonitrile] yielded an IC50 of 22.8 nM. Molecule CCc1nc(CN(CCOC)Cc2cc(Cl)c(OCc3cccc(-c4cccc(OCCCN5CC[C@@H](O)C5)c4C)c3C)cc2OCc2cncc(C#N)c2)[nH]c1CC [Example 2571, (R)-5-((4-chloro-2-((((4,5-diethyl-1H-imidazol-2-yl)methyl)(2-methoxyethyl)amino)methyl)-5-((3′-(3-(3-hydroxypyrrolidin-1-yl)propoxy)-2,2′-dimethyl-[1,1′-biphenyl]-3-yl)methoxy)phenoxy)methyl)nicotinonitrile] has an IC50 of 3.8 nM. Molecule Cc1c(COc2cc(OCc3cncc(C#N)c3)c(CNCc3cnco3)cc2Cl)cccc1-c1cccc(OCC2CCCN(C)C2)c1Cl (centres unmarked) [Example 2591, 5-((4-chloro-5-((2′-chloro-2-methyl-3′-((1-methylpiperidin-3-yl)methoxy)-[1,1′-biphenyl]-3-yl)methoxy)-2-(((oxazol-5-ylmethyl)amino)methyl)phenoxy)methyl)nicotinonitrile] has an IC50 of 1.9 nM. Molecule Cc1c(COc2cc(OCc3cncc(C#N)c3)c(CN(C)Cc3nc4ccccc4[nH]3)cc2Cl)cccc1-c1cccc(OCCCN2CC[C@@H](O)C2)c1C [Example 2023, (R)-5-((2-((((1H-benzo[d]imidazol-2-yl)methyl)(methyl)amino)methyl)-4-chloro-5-((3′-(3-(3-hydroxypyrrolidin-1-yl)propoxy)-2,2′-dimethyl-[1,1′-biphenyl]-3-yl)methoxy)phenoxy)methyl)nicotinonitrile] has an IC50 of 8.8 nM. With Cc1c(COc2cc(OCc3cncc(C#N)c3)c(CNCc3cncs3)cc2Cl)cccc1-c1cccc(OC2CCN(C)CC2)c1Cl [Example 2046, 5-((4-chloro-5-((2′-chloro-2-methyl-3′-((1-methylpiperidin-4-yl)oxy)-[1,1′-biphenyl]-3-yl)methoxy)-2-(((thiazol-5-ylmethyl)amino)methyl)phenoxy)methyl)nicotinonitrile] the IC50 was 32.3 nM. With Cc1n[nH]c(C)c1CNCc1cc(Cl)c(OCc2cccc(-c3cccc(OCC4CCCN(C)C4)c3Cl)c2C)cc1OCc1cncc(C#N)c1 (centres unmarked) [Example 2599, 5-((4-chloro-5-((2′-chloro-2-methyl-3′-((1-methylpiperidin-3-yl)methoxy)-[1,1′-biphenyl]-3-yl)methoxy)-2-((((3,5-dimethyl-1H-pyrazol-4-yl)methyl)amino)methyl)phenoxy)methyl)nicotinonitrile] the IC50 was 1.7 nM. Cc1c(COc2cc(OCc3cncc(C#N)c3)c(CN(C)Cc3csc(N)n3)cc2Cl)cccc1-c1cccc(OCC2CCCN(C)C2)c1Cl (centres unmarked) [Example 2617, 5-((2-((((2-aminothiazol-4-yl)methyl)(methyl)amino)methyl)-4-chloro-5-((2′-chloro-2-methyl-3′-((1-methylpiperidin-3-yl)methoxy)-[1,1′-biphenyl]-3-yl)methoxy)phenoxy)methyl)nicotinonitrile] gave an IC50 of 1.8 nM. Work on Cc1c(COc2cc(OCc3cncc(C#N)c3)c(CNCc3cnco3)cc2Cl)cccc1-c1cccc(OCCCN2CC[C@@H](O)C2)c1C [Example 2547, (R)-5-((4-chloro-5-((3′-(3-(3-hydroxypyrrolidin-1-yl)propoxy)-2,2′-dimethyl-[1,1′-biphenyl]-3-yl)methoxy)-2-(((oxazol-5-ylmethyl)amino)methyl)phenoxy)methyl)nicotinonitrile] yielded an IC50 of 2.5 nM. Work on Cc1c(COc2cc(OCc3cncc(C#N)c3)c(CN3CCCCC3c3nnn[nH]3)cc2Cl)cccc1-c1cccc(OCCCN2CC[C@@H](O)C2)c1C (stereo partly drawn) [Example 1012, 5-((2-((2-(1H-Tetrazol-5-yl)piperidin-1-yl)methyl)-4-chloro-5-((3′-(3-((R)-3-hydroxy-pyrrolidin-1-yl)propoxy)-2,2′-dimethyl-[1,1′-biphenyl]-3-yl)methoxy)phenoxy)methyl)-nicotinonitrile] yielded an IC50 of 0.7 nM. With COc1cc(OCc2cccc(-c3cccc(OCC4CCCN(C)C4)c3Cl)c2C)c(Cl)cc1CNCc1cn[nH]c1 (centres unmarked) [Example 2056, N-((1H-pyrazol-4-yl)methyl)-1-(5-chloro-4-((2′-chloro-2-methyl-3′-((1-methylpiperidin-3-yl)methoxy)-[1,1′-biphenyl]-3-yl)methoxy)-2-methoxyphenyl)methanamine] the IC50 was 3.5 nM. In the case of Cc1onc(-c2ccccc2)c1CNCc1cc(Cl)c(OCc2cccc(-c3cccc(OCCCN4CC[C@@H](O)C4)c3C)c2C)cc1OCc1cncc(C#N)c1 [Example 2522, (R)-5-((4-chloro-5-((3′-(3-(3-hydroxypyrrolidin-1-yl)propoxy)-2,2′-dimethyl-[1,1′-biphenyl]-3-yl)methoxy)-2-((((5-methyl-3-phenylisoxazol-4-yl)methyl)amino)methyl)phenoxy)methyl)nicotinonitrile], the IC50 is reported as 23.2 nM. For Cc1c(COc2cc(OCc3cncc(C#N)c3)c(CNCc3ncc[nH]3)cc2Cl)cccc1-c1cccc(OC2CCC(N3CCCC3)CC2)c1Cl (centres unmarked) [Example 2053, 5-((2-((((1H-imidazol-2-yl)methyl)amino)methyl)-4-chloro-5-((2′-chloro-2-methyl-3′-((4-(pyrrolidin-1-yl)cyclohexyl)oxy)-[1,1′-biphenyl]-3-yl)methoxy)phenoxy)methyl)nicotinonitrile], the IC50 was 2.9 nM. Cc1c(COc2cc(OCc3cncc(C#N)c3)c(CN(C)Cc3cc4ccccn4n3)cc2Cl)cccc1-c1cccc(OCCCN2CC[C@@H](O)C2)c1C [Example 2542, (R)-5-((4-chloro-5-((3′-(3-(3-hydroxypyrrolidin-1-yl)propoxy)-2,2′-dimethyl-[1,1′-biphenyl]-3-yl)methoxy)-2-((methyl(pyrazolo[1,5-a]pyridin-2-ylmethyl)amino)methyl)phenoxy)methyl)nicotinonitrile] was tested, and the IC50 was 3.9 nM. For Cc1c(COc2cc(OCc3cncc(C#N)c3)c(CNCCc3cscn3)cc2Cl)cccc1-c1cccc(OCCCN2CC[C@@H](O)C2)c1C [Example 2506, (R)-5-((4-chloro-5-((3′-(3-(3-hydroxypyrrolidin-1-yl)propoxy)-2,2′-dimethyl-[1,1′-biphenyl]-3-yl)methoxy)-2-(((2-(thiazol-4-yl)ethyl)amino)methyl)phenoxy)methyl)nicotinonitrile], the IC50 was 0.4 nM.
